Assay [1] deals with P388 lymphocytic leukemia cell line. The assay is described as follows: P388 in vitro cell line growth inhibition. Type of assay: cell-based, murine. As to the method: Because of the dolastatin's potency, the sea hare seems to require only vanishingly small quantities (about 1 mg each from 100 kg), making isolation and structural elucidation of these peptides exceptionally challenging. Later another substance was isolated and determined to be a unique linear pentapeptide and was denominated "dolastatin 10". […] The PS System is an excellent predictor of activity against various types of human neoplasms (See: Vendetti et al, Lloydia, 30, 332 et seq (1967) and references cited therein.)

Assay [2] shares this test system. The conditions noted are these: PS leukemia; cited from earlier work.

Values after ≈ are worked out from the molar mass of the structure shown. Where two headings read alike, the source gives them in different places. Non-standard residues stand in square brackets, D forms with d. Residues, ends and D or L forms follow the SMILES beside them. *: point of attachment. X3 = COC1=CC(=O)N(C(=O)[C@@H](O*)C(C)C)[C@H]1Cc1ccccc1; NMe2Val = CC(C)[C@@H](C(=O)*)N(C)C; NMeV = CN[C@H](C(=O)O)C(C)C

In assay [1], `COC1=CC(=O)N(C(=O)[C@@H](OC(=O)[C@@H]2CCCN2C(=O)[C@@H]2CCCN2C(=O)[C@H](C(C)C)N(C)C(=O)[C@@H](NC(=O)[C@H](C(C)C)N(C)C)C(C)C)C(C)C)[C@H]1Cc1ccccc1` [Dolastatin 15] (NMe2Val-V[NMeV]PP-X3) came in with an ED50 of 2.4 ng/mL (≈ 0.00287 µM).

In the case of `CC[C@H](C)[C@@H]([C@@H](CC(=O)N1CCC[C@H]1[C@H](OC)[C@@H](C)C(=O)N[C@@H](Cc1ccccc1)c1nccs1)OC)N(C)C(=O)[C@@H](NC(=O)[C@H](C(C)C)N(C)C)C(C)C` [dolastatin 10], the ED50 in assay [2] is 46 µg/mL (≈ 58.6 µM).

(Values after patent publication US4879278A, “Isolation and structural elucidation of the cytostatic linear depsipeptide dolastatin 15” (priority 1989, dated 1989).)
